System: not given
Assay: not given
Conditions: not given

melting point	SMILES
> 280 °C	Nc1nccc2c1ccn2-c1ccc(NC(=O)Nc2ccc(Cl)c(C(F)(F)F)c2)cc1 [Compound 1l]
> 280 °C	Nc1nccc2c1ccn2-c1cccc(NC(=O)c2ccc(Cl)c(Cl)c2)c1 [Compound 1o]
253 to 256 °C (dec.)	Nc1nccc2c1ccn2-c1ccc(NC(=O)c2ccc(N3CCOCC3)c(C(F)(F)F)c2)cc1 [Compound 1p]

More lines, now with the values behind:

SMILES	melting point
O=C(Nc1ccc(-n2ccc3c(NC(=O)c4ccccc4)nccc32)cc1)Nc1cc(C(F)(F)F)cc(C(F)(F)F)c1 [Compound 1e]	> 280 °C
O=C(Nc1cccc(-n2ccc3c(NC(=O)c4ccccc4)nccc32)c1)Nc1ccc(Cl)c(C(F)(F)F)c1 [Compound 1d]	143 to 145 °C
O=C(Nc1cccc(-n2ccc3c(NC(=O)c4ccccc4)nccc32)c1)c1cccc(C(F)(F)F)c1 [Compound 1i]	142 to 144 °C

Biological target: T1, FMS kinase (Homo sapiens, UniProt P07333)
T1 construct: purchased Reaction Biology Corp
T1 sequence (P07333 20-972): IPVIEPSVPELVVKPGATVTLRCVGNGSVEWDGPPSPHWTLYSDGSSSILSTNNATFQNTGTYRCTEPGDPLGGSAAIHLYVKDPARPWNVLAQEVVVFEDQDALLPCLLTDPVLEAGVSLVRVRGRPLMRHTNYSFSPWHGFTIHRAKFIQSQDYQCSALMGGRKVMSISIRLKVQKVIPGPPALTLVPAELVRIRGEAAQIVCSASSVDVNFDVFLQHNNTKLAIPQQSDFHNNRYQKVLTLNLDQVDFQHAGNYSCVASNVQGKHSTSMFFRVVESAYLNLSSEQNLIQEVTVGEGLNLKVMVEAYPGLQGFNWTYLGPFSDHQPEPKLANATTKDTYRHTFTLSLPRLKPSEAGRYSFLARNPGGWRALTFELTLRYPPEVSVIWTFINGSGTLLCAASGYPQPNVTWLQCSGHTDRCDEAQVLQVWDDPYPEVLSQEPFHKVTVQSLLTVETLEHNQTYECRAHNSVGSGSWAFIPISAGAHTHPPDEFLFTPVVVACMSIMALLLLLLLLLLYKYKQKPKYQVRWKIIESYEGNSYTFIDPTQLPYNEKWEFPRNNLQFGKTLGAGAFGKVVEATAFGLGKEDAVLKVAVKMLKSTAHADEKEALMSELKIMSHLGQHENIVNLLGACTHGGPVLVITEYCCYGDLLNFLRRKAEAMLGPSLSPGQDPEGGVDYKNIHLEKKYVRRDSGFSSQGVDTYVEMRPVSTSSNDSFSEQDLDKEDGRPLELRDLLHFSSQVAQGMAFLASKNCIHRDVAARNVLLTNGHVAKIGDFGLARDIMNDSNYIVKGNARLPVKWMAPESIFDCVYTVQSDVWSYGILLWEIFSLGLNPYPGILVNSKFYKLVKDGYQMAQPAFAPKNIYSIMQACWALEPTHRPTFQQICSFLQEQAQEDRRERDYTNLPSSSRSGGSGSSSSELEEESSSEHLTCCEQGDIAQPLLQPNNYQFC
Assay: Kinase HotSpot cell-free enzyme assay, FMS kinase
Type: biochemical
Conditions: 10-dose duplicate assay, mean ± SEM, starting with 81 µM, threefold serial dilution; read-out: IC50 against FMS kinase
Description: Reaction Biology Corp. Kinase HotSpot^SM service [http://www.reactionbiology.com] was utilised for screening of the target compounds as per the protocol reported in the literature.
Compounds 1a–r were tested in a 10-dose testing mode starting with 81 µM, threefold serial dilutions, against FMS kinase in a cell-free enzyme assay. […] This can be due to occupancy of a hydrophobic pocket with that additional benzoyl moiety and/or formation of additional hydrogen bond by the carbonyl oxygen.

IC50	SMILES
3200 ± 70 nM	Nc1nccc2c1ccn2-c1ccc(NC(=O)Nc2ccc(Cl)c(C(F)(F)F)c2)cc1 [Compound 1l]
1450 ± 30 nM	Nc1nccc2c1ccn2-c1ccc(NC(=O)Nc2cc(C(F)(F)F)cc(C(F)(F)F)c2)cc1 [Compound 1m]
40700 ± 2400 nM	Nc1nccc2c1ccn2-c1cccc(NC(=O)c2ccc(Cl)c(Cl)c2)c1 [Compound 1o]
> 81000 nM	Nc1nccc2c1ccn2-c1ccc(NC(=O)c2ccc(Cl)c(Cl)c2)cc1 [Compound 1n]
100 ± 30 nM	Nc1nccc2c1ccn2-c1ccc(NC(=O)c2ccc(N3CCOCC3)c(C(F)(F)F)c2)cc1 [Compound 1p]

More lines, now with the values behind:

SMILES	IC50
O=C(Nc1ccc(-n2ccc3c(NC(=O)c4ccccc4)nccc32)cc1)Nc1cc(C(F)(F)F)cc(C(F)(F)F)c1 [Compound 1e]	60 ± 10 nM
O=C(Nc1cccc(-n2ccc3c(NC(=O)c4ccccc4)nccc32)c1)c1ccc(Cl)c(Cl)c1 [Compound 1g]	1270 ± 70 nM
O=C(Nc1cccc(-n2ccc3c(NC(=O)c4ccccc4)nccc32)c1)Nc1ccc(Cl)c(C(F)(F)F)c1 [Compound 1d]	2470 ± 30 nM
O=C(Nc1ccc(-n2ccc3c(NC(=O)c4ccccc4)nccc32)cc1)c1ccc(Cl)c(Cl)c1 [Compound 1f]	> 81000 nM
O=C(Nc1ccc(-n2ccc3c(NC(=O)c4ccccc4)nccc32)cc1)c1ccc(N2CCOCC2)c(C(F)(F)F)c1 [Compound 1j]	33100 ± 450 nM
O=C(Nc1cccc(-n2ccc3c(NC(=O)c4ccccc4)nccc32)c1)c1cccc(C(F)(F)F)c1 [Compound 1i]	> 81000 nM
O=C(Nc1ccc(-n2ccc3c(NC(=O)c4ccccc4)nccc32)cc1)Nc1ccc(Cl)c(C(F)(F)F)c1 [Compound 1c]	390 ± 20 nM
O=C(Nc1ccc(-n2ccc3c(NC(=O)c4ccccc4)nccc32)cc1)c1cccc(C(F)(F)F)c1 [Compound 1h]	10800 ± 600 nM

Same assay, conditions: ratio of IC50 values, more potent than lead compound KIST101029

Potency against FMS kinase relative to KIST101029	SMILES
1.6 times	O=C(Nc1ccc(-n2ccc3c(NC(=O)c4ccccc4)nccc32)cc1)Nc1cc(C(F)(F)F)cc(C(F)(F)F)c1 [Compound 1e]
